Data: ChEMBL document CHEMBL1137385, “Macrocyclic inhibitors of beta-secretase: functional activity in an animal model” (J Med Chem, 2006)

Experiments:
[1] = target: T1, Beta-secretase 1 (Homo sapiens, UniProt P56817); assay: Inhibition of BACE1 at pH 4.5
[2] = Apparent permeability in porcine LLC-PK1 cells; type: ADME, cell-based, Sus scrofa; details: pig
[3] = target: T1, Beta-secretase 1; assay: Inhibition of BACE1 in HEK293T cells; type: cell-based, HEK-293T
[4] = tested on: Mus musculus; assay: Ratio of drug level in brain against plasma in C57/BL6 APP-YAC mouse model at 100 mg/kg, iv; type: ADME, organism-based, C57Bl/6; set-up: dose 100 mg/kg, route intravenous
[5] = tested on: Mus musculus; assay: Drug level in brain of C57/BL6 APP-YAC mouse model at 100 mg/kg, iv; type: ADME, organism-based, C57Bl/6; set-up: dose 100 mg/kg, route intravenous; details: in vivo, read-out: Drug uptake

T1 sequence (P56817 whole entry): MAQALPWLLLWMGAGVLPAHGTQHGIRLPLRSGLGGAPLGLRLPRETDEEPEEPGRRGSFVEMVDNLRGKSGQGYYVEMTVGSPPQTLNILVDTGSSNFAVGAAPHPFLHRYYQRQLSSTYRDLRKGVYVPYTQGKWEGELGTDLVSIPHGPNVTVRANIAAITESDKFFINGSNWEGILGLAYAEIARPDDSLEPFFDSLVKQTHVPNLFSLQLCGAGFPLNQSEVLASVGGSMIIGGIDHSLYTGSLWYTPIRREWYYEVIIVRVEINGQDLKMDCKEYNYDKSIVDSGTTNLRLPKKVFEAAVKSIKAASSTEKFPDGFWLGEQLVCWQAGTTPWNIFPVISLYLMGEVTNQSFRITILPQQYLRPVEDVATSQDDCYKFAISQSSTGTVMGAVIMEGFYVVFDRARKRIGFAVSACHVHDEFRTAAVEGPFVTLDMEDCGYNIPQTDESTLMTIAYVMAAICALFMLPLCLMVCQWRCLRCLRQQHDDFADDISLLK

CC[C@H](NCC1Cc2cccc(c2)CCCCCc2cc(cc(N(C)S(C)(=O)=O)c2)C(=O)N1)C(=O)NCC(C)C (stereo partly drawn)
IC50 [1]: 1100 nM

CC[C@H](NCC1Cc2cccc(c2)CCCCc2cc(cc(N(C)S(C)(=O)=O)c2)C(=O)N1)C(=O)NCC(C)C (stereo partly drawn)
Papp [2]: 19 ×10⁻⁶ cm/s
IC50 [3]: 1140 nM
IC50 [1]: 90 nM

CNC(=O)c1cc(C(=O)NC(CO)Cc2cccc(OC)c2)cc(N(C)S(C)(=O)=O)c1 (stereo not drawn)
IC50 [1]: > 100000 nM

CC[C@H](NCC1Cc2cccc(c2)OCCNC(=O)c2cc(cc(N(C)S(C)(=O)=O)c2)C(=O)N1)C(=O)NCC(C)C (stereo partly drawn)
Papp [2]: 0.5 ×10⁻⁶ cm/s
IC50 [3]: 5400 nM
IC50 [1]: 32 nM

CCCC[C@H](NC[C@@H]1Cc2cccc(c2)CCCCc2cc(cc(N(CCC)S(C)(=O)=O)c2)C(=O)N1)C(=O)NCC(C)C
Papp [2]: 13 ×10⁻⁶ cm/s
IC50 [3]: 76 nM
BPR [4]: 20%
IC50 [1]: 4 nM
concentration [5]: 1100 nM
